From US20260055398A1, “IMPROVED POLYMER DEGRADING ENZYMES” (CAMBRIDGE ENTERPRISE LIMITED, priority 2022, published 2026) come the findings set out here.

What all share (format): biochemical
In one experiment the test system is N20O1. Nature of the experiment: Kinetics of p-NP acyl ester hydrolysis by N20O1. Particulars: 50 mM Tris-HCl pH 8.0, 0.3% (v/v) triton X-100, 22° C. On the procedure: The activity of all esterase hits was determined via hydrolysis of p-nitrophenol (p-NP) carboxylesterase by monitoring the release of p-nitrophenol. The amount of p-nitrophenol released was quantified by absorbance at 405 nm (εpNP=17,000 M−1.cm−1) using a Spectramax 190 microplate reader (Molecular Devices). Unless otherwise indicated, the measurements were performed at 22° C. in triplicate using 96-well plates with a final assay volume of 100 μL in 50 mM Tris-HCl pH 8.0 and 0.3% (v/v) triton X-100. The substrate specificity was investigated by measuring the hydrolysis of the following p-NP-fatty acyl esters: butyrate (C4), hexanoate (C6 from TCI Chemicals, H0484), octanoate (C8), decanoate (C10), dodecanoate (C12), myristate (C14) and palmitate (C16). The kinetic parameters for each substrate were obtained by non-linear regression of the data using the Michaelis-Menten equation: V=Vmax*[S]/(Km+[S]), where V is the rate, Vmax is the maximum rate achieved by the reaction, S is the substrate concentration, and Km is the Michaelis-Menten constant. The effect of the pH was evaluated by measuring the enzyme activity at pH 4.0 to 11.0 in 50 mM of the following buffers containing 0.3% (v/v) triton X-100: sodium citrate at pH 4.0, pH 5.0 and 6.0; phosphate at pH 6.0, 7.0, 8.0; Tris-HCl at pH 7.0, 8.0 and 9.0; N-cyclohexyl-3-aminopropanesulfonic acid (CAPS) at pH 9.5, 10.0, 11.0. […]

A further experiment relates to RR11O2. Nature of the experiment: Kinetics of p-NP acyl ester hydrolysis by RR11O2. Particulars: 50 mM Tris-HCl pH 8.0, 0.3% (v/v) triton X-100, 22° C. On the procedure:
(B) Detail of RR11O2's cavity (in blue) and the catalytic triad (in cyan) S149, D311 and H308. (C) The catalytic efficiencies of RR11O2 measured against p-NP acyl esters [acetate (C2), butyrate (C4), hexanoate (C6), octanoate (C8), decanoate (C10), dodecanoate (C12), myristate (C14) and palmitate (C16)]. The reactions were performed in buffer containing 50 mM Tris-HCl PH 8.0 and 0.3% (v/v) Triton X-100 at 22° C.
The activity of all esterase hits was determined via hydrolysis of p-nitrophenol (p-NP) carboxylesterase by monitoring the release of p-nitrophenol. The amount of p-nitrophenol released was quantified by absorbance at 405 nm (εpNP=17,000 M−1.cm−1) using a Spectramax 190 microplate reader (Molecular Devices). Unless otherwise indicated, the measurements were performed at 22° C. in triplicate using 96-well plates with a final assay volume of 100 μL in 50 mM Tris-HCl pH 8.0 and 0.3% (v/v) triton X-100. The substrate specificity was investigated by measuring the hydrolysis of the following p-NP-fatty acyl esters: butyrate (C4), hexanoate (C6 from TCI Chemicals, H0484), octanoate (C8), decanoate (C10), dodecanoate (C12), myristate (C14) and palmitate (C16). The kinetic parameters for each substrate were obtained by non-linear regression of the data using the Michaelis-Menten equation: V=Vmax*[S]/(Km+[S]), where V is the rate, Vmax is the maximum rate achieved by the reaction, S is the substrate concentration, and Km is the Michaelis-Menten constant. The effect of the pH was evaluated by measuring the enzyme activity at pH 4.0 to 11.0 in 50 mM of the following buffers containing 0.3% (v/v) triton X-100: sodium citrate at pH 4.0, pH 5.0 and 6.0; phosphate at pH 6.0, 7.0, 8.0; Tris-HCl at pH 7.0, 8.0 and 9.0; N-cyclohexyl-3-aminopropanesulfonic acid (CAPS) at pH 9.5, 10.0, 11.0.
The enzyme activity of purified RR11O2, Bla-CI5En2 and IsPETase was tested against different p-NP acyl esters [acetate (C2), butyrate (C4), hexanoate (C6), octanoate (C8), decanoate (C10), dodecanoate (C12) and myristate (C14)]. The final enzyme concentration of the enzymes in the reaction depended on the p-NP acyl ester used as substrate. Kinetics were measured at enzyme concentrations of RR11O2, Bla-CI5En2 and IsPETase between 31.25 μM to 23.2 μM, 2.5 nM to 50 nM, and 50 nM to 4.8 μM, respectively. The p-NP acyl ester substrates were used in a concentration range between 0 and 4 mM. The kinetic parameters Vmax and Km were calculated using Kaleidagraph by non-linear lest square fits of initial rates to the Michaelis-Menten equation. […] The released p-nitrophenol was monitored spectro-photometrically at 405 nm (εpNP=18.300 M−1.cm−1) by taking time points in 20 second intervals in a SpectraMax® M3 Microplate Reader (Molecular Devices).

Experiment [1] is described as follows: Enzymatic degradation of PET (nanoparticles, film), HPLC of released TPA and MHET. The source says: (A) Sequence network of currently known PETases and a novel esterase metagenomic-derived, RR11O2. […] Grey nodes represent sequences extracted from MGnify and NCBI. Red node represents RR11O2, blue nodes represent known PETases, green and orange nodes represent reported cutinases and esterases showing PET activity, respectively, and light blue nodes represent described polyester degrading enzymes in the literature. To putatively characterise sequence clusters, the identification of PETases, cutinases, esterases and RR11O2 in the network helped to define the potential clusters. The cluster of RR11O2, CI5En2 and PETase are written in grey. (B) PET hydrolases catalyze the depolymerization of poly(ethylene terephthalate) (PET) to bis(2-hydroxyethyl) terephthalate (BHET), mono(2-hydroxyethyl)-terephthalic (MHET) or terephthalic acid (TPA) and ethylene glycol (EG). During characterizations via high-performance liquid chromatography (HPLC) MHET and TPA have been identified as main products. […] Absorbance at 250 nm was monitored.
(A) Enrichment of variants with higher activity compared to wildtype after sorting the ep-PCR library of CI5En2. […] Amount of the released monomers TPA and MHET was determined via HPLC and corresponding standard curves for TPA and MHET. […]
HPLC analysis of the products released after one week incubation at 30° C. using 6 μM pExp-bla-CI5En2-WT. Absorbance at 250 nm was monitored which detects released TPA and MHET.
To detect the release of TPA, MHET and BHET in the presence of various enzymes, aliquots were taken from reaction mixtures, turnover was stopped by addition of an equal volume of methanol containing 0.5% formic acid, centrifuged (16,100×g, 15 min) and analysed by HPLC (1260 Infinity II, Agilent; Nucleodur C18 analytical EC standard column (5 μm, 4×125 mm, Macherey-Nagel, Germany). As the mobile phase mixtures of buffer A (0.1% formic acid in distilled water) and buffer C (distilled water), as well as buffer D (acetonitrile) were used at a flow rate of 1 mL/min. Buffer A was kept at 20% for the whole run. […]

On to `CCCCCCCCCCCC(=O)Oc1ccc([N+](=O)[O-])cc1` [Substrate 3f, p-NP dodecanoate], for which the Km came out at 2000 µM in the experiment on N20O1 and 2800 µM in the experiment with RR11O2. The turnover number (kcat) in the experiment with N20O1 amounted to 0.5 s⁻¹; in the experiment with RR11O2 it was 0.78 s⁻¹.
Taken in the same sequence, the figures for `CCCCCCCCCCCCCCCC(=O)Oc1ccc([N+](=O)[O-])cc1` [Substrate 3h, p-NP palmitate] were 4800 µM, 7400 µM, 0.016 s⁻¹ and 0.017 s⁻¹.
With `CCCC(=O)Oc1ccc([N+](=O)[O-])cc1` [Substrate 3b, p-NP butyrate], the Km in the experiment with N20O1 and in the experiment with RR11O2 was 2200 µM each time. The figures for the kcat in the experiment with N20O1 and in the experiment with RR11O2 were 630 s⁻¹ and 46 s⁻¹, respectively.
Regarding `CCCCCCCC(=O)Oc1ccc([N+](=O)[O-])cc1` [Substrate 3d, p-NP octanoate], in the experiment with N20O1, the Km came out at 1100 µM and the kcat stood at 370 s⁻¹. Moreover, in the experiment on RR11O2, the Km was determined as 370 µM and the kcat came to 11 s⁻¹.
For `CCCCCC(=O)Oc1ccc([N+](=O)[O-])cc1` [Substrate 3c, p-NP hexanoate] the same measures were 1400 µM, 250 s⁻¹, 720 µM and 35 s⁻¹.
Taken in the same sequence, the figures for `CC(=O)Oc1ccc([N+](=O)[O-])cc1` [Substrate 3a, p-NP acetate] were 3800 µM, 520 s⁻¹, 30000 µM and 390 s⁻¹.
In the case of `CCCCCCCCCC(=O)Oc1ccc([N+](=O)[O-])cc1` [Substrate 3e, p-NP decanoate], in the experiment with N20O1, the Km amounted to 1500 µM and the turnover number (kcat) worked out at 31 s⁻¹. Moreover, in the experiment on RR11O2, the Km amounted to 2000 µM and the kcat came to 5.4 s⁻¹.
Taken in the same sequence, the figures for `CCCCCCCCCCCCCC(=O)Oc1ccc([N+](=O)[O-])cc1` [Substrate 3g, p-NP myristate] were 4400 µM, 0.042 s⁻¹, 1500 µM and 0.039 s⁻¹.

B1: RR11O2: metagenomic-derived esterase with promiscuous activity on PET; amino acid SEQ ID NO. 4; PDB 6ZZV (protein)
chain: MSENMNRPLDYSQKANWYQIPEVTKEFDTFYVYATEYILSSMEEGAPDYADMENAEMLEGAAAEYMLHATAYADSTNVFMPYYRQVGLRYAGVVWKRDGIFDASVAGMPYGDIVAALDYYFEHYNNGRPFIIAGHSQGSAIIKMVLKKYFVEHPDYYKRMIAAYPIGYAFTKDEFKTYPHMKFATGECDTGVIITWNTEGPKNREVNADTCVLQPGSMSINPLNWKLDDTYAPASMNLGSLFPNKDTGKLEIQDLGADAQVFPDRGVVVTHAMGEEMTEETAKVAAEFFGPDGRHGEDYVLFYCNIKDNVAKRISAYMANRK
modifications: RR1102
Turning to B1, in experiment [1], the “promiscuous activity on PET” value is recorded as “exhibits promiscuous activity on PET”.

One may read the Km as the substrate concentration at which the rate is half of its maximum. What is called kcat is the maximal rate divided by the concentration of active sites.
